According to patent US7815912B2, “Method of controlled ovarian hyperstimulation and pharmaceutical kit for use in such method” (Ares Trading, S.A., priority 2002, dated 2010):
Non-standard residues stand in square brackets, D forms with d. Residues, ends and D or L forms follow the SMILES beside them. d(hArg(Et2)) = CCN=C(NCC)NCCCC[C@@H](N)C(=O)O; hArg(Et2) = CCN=C(NCC)NCCCC[C@H](N)C(=O)O; dPhe(4-Cl) = N[C@H](Cc1ccc(Cl)cc1)C(=O)O; d2Nal = N[C@H](Cc1ccc2ccccc2c1)C(=O)O; dCit = NC(=O)NCCC[C@@H](N)C(=O)O; d3Pal = N[C@H](Cc1cccnc1)C(=O)O

How the values were obtained:
Assay type in all cases: in vivo, human
[1] = test system: premature endogenous LH-surge; experiment: open-label controlled clinical trial: premature endogenous LH-surge prevention in COH; conditions: daily subcutaneous 2.0 mg cetrorelix without recLH
Source text: (§1) Although this treatment is suitable for all types of IVF patients (e.g. within the age range 18 to 45 years, with or without displaying polycystic ovarian syndrome and with or without a regular cycle), the following selection criteria are set forth in the investigation: healthy female partners of infertile couples; age at the time of screening between 20 and 39 years; a regular menstrual cycle, and willing to give a written informed consent. However, no special precautions concerning body weight or body mass index are taken.
(§2) Prior to the first administration of recombinant FSH a blood sample is taken for hormone analysis (estradiol and LH) and a standard urinary hCG assay is performed to exclude pregnancy. Recombinant FSH treatment is started at day 2 or 3 of menses by a daily subcutaneous injection until the day of hCG administration. During the first 5 days of recombinant FSH treatment the daily dose is fixed to 150 IU. […]
(§3) A subcutaneous injection with urinary hCG (10,000 IU) is administered, when at least three follicles exceed a diameter of 17 mm as measured by ultrasound scan and subsequently oocyte retrieval is performed typically 30-36 hours later.

[2] = test system: women undergoing COH and subsequent IVF and ET; experiment: safety and tolerability in the clinical trial of COH with subsequent IVF and ET; conditions: daily subcutaneous 2.0 mg cetrorelix without recLH
Source text: as §1, §2, §3

IVF-patients = experiment: implantation and pregnancy rates after IVF and embryo transfer following COH
Source text: as §1
Prior to the first administration of recombinant FSH a blood sample is taken for hormone analysis (estradiol and LH) and a standard urinary hCG assay is performed to exclude pregnancy. Recombinant FSH treatment is started at day 2 or 3 of menses by a daily subcutaneous injection until the day of hCG administration. During the first 5 days of recombinant FSH treatment the daily dose is fixed to 150 IU. Starting at day 6, blood samples for hormone analysis are taken once every two days prior to drug administration and ultrasonographic monitoring of follicle growth is performed to adjust, if necessary, the daily injectable doses of recombinant FSH.
as §3
Oocytes are retrieved from the human females that have undergone COH as set forth in example 1. The oocytes are subsequently fertilized in vitro and two days later no more than two embryos are transferred to the uterus of the patient. […] Lower implantation and pregnancy rates are obtained in IVF-patients, in whom premature LH surges are prevented by a daily dose of 0.25 mg cetrorelix.

[3] = test system: premature endogenous LH-surge; experiment: Examples 1 and 2 repeated using ganirelix instead of cetrorelix; conditions: 2.0 mg ganirelix instead of 2.0 mg cetrorelix
Source text: as §1, §2
A subcutaneous injection with urinary hCG (10,000 IU) is administered, when at least three follicles exceed a diameter of 17 mm as measured by ultrasound scan and subsequently oocyte retrieval is performed typically 30-36 hours later. […]

[4] = daily 2.0 mg cetrorelix without co-administered recLH

| Compound | efficacy in preventing a premature LH-rise ([1]; compared with 0.25 mg) | effectiveness in preventing a premature LH-rise in patients with bodyweight of more than 75 kg ([1]; IVF patients undergoing COH, bodyweight more than 75 kg) | adverse effects [2] | tolerability [2] | implantation rates (rank among three treatment groups) (IVF-patients; daily 0.25 mg cetrorelix) | pregnancy rates (rank among three treatment groups) (IVF-patients; daily 0.25 mg cetrorelix) | implantation rates (rank among three treatment groups) (IVF-patients; [4]) | pregnancy rates (rank among three treatment groups) (IVF-patients; [4]) | results (LH-rise prevention, tolerability, implantation and pregnancy rates) compared with examples 1 and 2 [3] |
| --- | --- | --- | --- | --- | --- | --- | --- | --- | --- |
| CC(=O)N[C@H](Cc1ccc2ccccc2c1)C(=O)N[C@H](Cc1ccc(Cl)cc1)C(=O)N[C@H](Cc1cccnc1)C(=O)N[C@@H](CO)C(=O)N[C@@H](Cc1ccc(O)cc1)C(=O)N[C@H](CCCNC(N)=O)C(=O)N[C@@H](CC(C)C)C(=O)N[C@@H](CCCNC(=N)N)C(=O)N1CCC[C@H]1C(=O)N[C@H](C)C(N)=O [cetrorelix] (Ac-[d2Nal][dPhe(4-Cl)][d3Pal]SY[dCit]LRP[dA]-NH2) | more efficacious | especially apparent | no apparent adverse effects | well-tolerated | Lower | Lower | lowest | lowest |  |
| CCN=C(NCC)NCCCC[C@H](NC(=O)[C@H](CC(C)C)NC(=O)[C@@H](CCCCNC(=NCC)NCC)NC(=O)[C@H](Cc1ccc(O)cc1)NC(=O)[C@H](CO)NC(=O)[C@@H](Cc1cccnc1)NC(=O)[C@@H](Cc1ccc(Cl)cc1)NC(=O)[C@@H](Cc1ccc2ccccc2c1)NC(C)=O)C(=O)N1CCC[C@H]1C(=O)N[C@H](C)C(N)=O [ganirelix] (Ac-[d2Nal][dPhe(4-Cl)][d3Pal]SY[d(hArg(Et2))]L[hArg(Et2)]P[dA]-NH2) |  |  |  |  |  |  |  |  | very similar |
